The source of these data is patent US10179767B2 (GENENTECH, INC., priority 2015, dated 2019).

The target in this assay is T1, hNav1.7 (Homo sapiens, UniProt Q15858).
T1 construct: expressed in transfected cells
T1 sequence (Q15858 whole entry): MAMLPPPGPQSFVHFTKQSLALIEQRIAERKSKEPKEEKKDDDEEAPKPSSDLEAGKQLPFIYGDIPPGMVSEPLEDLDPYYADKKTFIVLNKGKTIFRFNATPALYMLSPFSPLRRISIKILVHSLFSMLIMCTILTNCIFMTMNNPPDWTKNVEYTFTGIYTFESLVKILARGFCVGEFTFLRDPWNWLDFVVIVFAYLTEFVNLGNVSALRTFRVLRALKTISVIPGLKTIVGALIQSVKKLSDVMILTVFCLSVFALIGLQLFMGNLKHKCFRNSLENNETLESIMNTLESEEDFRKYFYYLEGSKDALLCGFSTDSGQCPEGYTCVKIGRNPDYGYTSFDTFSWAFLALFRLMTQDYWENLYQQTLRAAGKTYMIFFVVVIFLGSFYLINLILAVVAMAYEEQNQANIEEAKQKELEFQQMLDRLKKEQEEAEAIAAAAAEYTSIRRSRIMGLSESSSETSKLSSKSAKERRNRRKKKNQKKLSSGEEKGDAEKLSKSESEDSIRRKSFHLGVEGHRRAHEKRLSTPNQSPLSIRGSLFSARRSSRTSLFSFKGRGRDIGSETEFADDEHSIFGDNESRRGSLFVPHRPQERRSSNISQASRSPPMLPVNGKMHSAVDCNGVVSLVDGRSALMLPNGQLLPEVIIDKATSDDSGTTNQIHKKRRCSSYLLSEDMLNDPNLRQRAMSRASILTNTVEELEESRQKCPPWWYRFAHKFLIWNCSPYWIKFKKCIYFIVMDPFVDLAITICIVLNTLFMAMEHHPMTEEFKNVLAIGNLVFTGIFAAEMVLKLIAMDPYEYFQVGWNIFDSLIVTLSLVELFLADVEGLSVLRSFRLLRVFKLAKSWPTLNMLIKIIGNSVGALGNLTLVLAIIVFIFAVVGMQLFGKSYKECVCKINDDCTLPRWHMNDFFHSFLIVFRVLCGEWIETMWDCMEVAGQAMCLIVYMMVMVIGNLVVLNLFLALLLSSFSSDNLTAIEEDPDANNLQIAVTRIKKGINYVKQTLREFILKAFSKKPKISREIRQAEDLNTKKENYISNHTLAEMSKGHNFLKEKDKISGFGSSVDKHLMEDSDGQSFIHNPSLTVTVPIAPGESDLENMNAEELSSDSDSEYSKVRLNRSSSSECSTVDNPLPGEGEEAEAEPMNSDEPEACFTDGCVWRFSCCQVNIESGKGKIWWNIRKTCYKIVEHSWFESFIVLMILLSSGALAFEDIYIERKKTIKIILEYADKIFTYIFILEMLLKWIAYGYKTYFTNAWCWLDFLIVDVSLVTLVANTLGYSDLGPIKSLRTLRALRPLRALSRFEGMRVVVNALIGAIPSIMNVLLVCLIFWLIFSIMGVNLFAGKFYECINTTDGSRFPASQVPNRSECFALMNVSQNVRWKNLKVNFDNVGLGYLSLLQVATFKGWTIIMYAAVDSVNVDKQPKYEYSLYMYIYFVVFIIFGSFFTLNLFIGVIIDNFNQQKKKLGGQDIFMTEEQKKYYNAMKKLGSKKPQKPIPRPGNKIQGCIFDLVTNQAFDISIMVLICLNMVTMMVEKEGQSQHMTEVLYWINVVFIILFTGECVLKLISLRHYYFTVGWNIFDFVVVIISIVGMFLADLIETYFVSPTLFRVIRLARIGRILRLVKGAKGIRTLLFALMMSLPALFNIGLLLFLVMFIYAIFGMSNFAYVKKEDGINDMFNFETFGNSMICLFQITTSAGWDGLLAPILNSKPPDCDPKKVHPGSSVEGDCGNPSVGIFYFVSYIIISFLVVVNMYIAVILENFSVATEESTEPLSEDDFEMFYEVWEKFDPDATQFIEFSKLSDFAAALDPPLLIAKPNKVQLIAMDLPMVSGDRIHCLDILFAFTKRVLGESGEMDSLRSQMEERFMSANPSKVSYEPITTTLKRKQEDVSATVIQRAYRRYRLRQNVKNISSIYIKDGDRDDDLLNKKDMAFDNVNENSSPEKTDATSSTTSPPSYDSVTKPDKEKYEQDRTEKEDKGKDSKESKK
T1 sequence (Q07699 19-218 partner): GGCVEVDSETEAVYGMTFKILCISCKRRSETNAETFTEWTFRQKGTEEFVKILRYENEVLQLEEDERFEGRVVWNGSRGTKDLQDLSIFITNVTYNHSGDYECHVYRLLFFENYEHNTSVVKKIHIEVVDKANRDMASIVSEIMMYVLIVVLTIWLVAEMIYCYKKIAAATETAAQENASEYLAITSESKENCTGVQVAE
Put plainly: Tritiated sulfonamide binding to membranes from cells expressing hNav1.7 and the β1 subunit (Nav 1.7 ligand binding assay, competitive). The settings on record: competition with 100 pM [3H]compound, room temperature, 18 h. As to the method: Tritiated Sulfonamide Binding to Membranes Isolated from Cells that Heterologously Express hNav1.7 and the β1 Subunit
Preparation of membranes containing recombinantly expressed sodium channels: Frozen recombinant cell pellets were thawed on ice and diluted to 4 times the cell pellet weight with ice cold 50 mM Tris HCl, pH 7.4 buffer. The cell suspensions were homogenized on ice using a motorized glass dounce homogeniser. Homogenates were further diluted 8.4 times with ice cold 50 mM Tris HCl, pH 7.4 buffer and then centrifuged at 200×g at 4° C. for 15 min. The supernatants were collected and centrifuged at 10000×g at 4° C. for 50 min. The pellets were then re-suspended in 100 mM NaCl, 20 mM Tris HCl, pH 7.4 buffer containing 1% v/v protease inhibitors (Calbiochem) and re-homogenized on ice. The homogenized membranes were then processed through a syringe equipped with a 26 gauge needle. Protein concentrations were determined by Bradford Assay and the membranes were stored at −80° C.
Radioligand Binding Studies:
Saturation experiments. A competitive NaV1.7 inhibitor having a methyl group was tritiated. Three tritiums were incorporated in place of methyl hydrogens to generate [^3H]compound. Binding of this radioligand was preformed in 5 mL borosilicate glass test tubes at room temperature. Binding was initiated by adding membranes to increasing concentrations of [^3H]compound in 100 mM NaCl, 20 mM Tris HCl, pH 7.4 buffer containing 0.01% w/v bovine serum albumin (BSA) for 18 h. Non-specific binding was determined in the presence of 1 μM unlabelled compound. After 18 h, the reactants were filtered through GF/C glass fiber filters presoaked in 0.5% w/v polyethylene imine Filters were washed with 15 mL ice cold 100 mM NaCl, 20 mM Tris HCl, pH7.4 buffer containing 0.25% BSA to separate bound from free ligand. [^3H]compound bound to filters was quantified by liquid scintillation counting.
Competitive Binding Experiments:
Binding reactions were preformed in 96-well polypropylene plates at room temperature for 18 h. In 360 μL, membranes were incubated with 100 pM [^3H]compound and increasing concentrations of Test Compound. Non-specific binding was defined in the presence of 1 μM unlabelled compound. Reactions were transferred and filtered through 96-well glass fiber/C filter plates presoaked with 0.5% polyethylene imine. The filtered reactions were washed 5 times with 200 μL ice cold buffer containing 0.25% BSA. Bound radioactivity was determined by liquid scintillation counting. Data Analysis: For saturation experiments, non-specific binding was subtracted from total binding to provide specific binding and these values were recalculated in terms of pmol ligand bound per mg protein. Saturation curves were constructed and dissociation constants were calculated using the single site ligand binding model: Beq=(Bmax*X)/(X+Kd), where Beq is the amount of ligand bound at equilibrium, Bmax is the maximum receptor density, Kd is the dissociation constant for the ligand, and X is the free ligand concentration. For competition studies percent inhibition was determined and IC50 values were calculated using a 4 parameter logistic model (% inhibition=(A+((B−A)/(1+((x/C)⨣D)))) using XLfit, where A and B are the maximal and minimum inhibition respectively, C is the IC50 concentration and D is the (Hill) slope.
In general, IC50 refers to the concentration at which inhibition is half-maximal. `CS(=O)(=O)NC(=O)c1cc(C2CC2)c(O[C@H]2CN(Cc3ccc(F)cc3Cl)CC[C@@H]2F)cc1F` (relative stereo) [Example 45, trans 4-((1-(2-chloro-4-fluorobenzyl)-4-fluoropiperidin-3-yl)oxy)-5-cyclopropyl-2-fluoro-N-(methylsulfonyl)benzamide] yielded an IC50 of 83 nM.
Molecule `C[C@H](c1cc(Cl)cc(Cl)c1C#N)N1CCC(COc2cc(F)c(C(=O)NS(C)(=O)=O)cc2C2CC2)CC1` (single isomer, unassigned) [Example 1] showed an IC50 of 8.8 nM.
Molecule `C[C@@H](c1cc(Cl)cc(Cl)c1C#N)N1CCC(COc2cc(F)c(C(=O)NS(C)(=O)=O)cc2C2CC2)CC1` (single isomer, unassigned) [Example 2] returned an IC50 of 5.5 nM.
The same measure for `COC1(COc2cc(F)c(C(=O)NS(C)(=O)=O)cc2C2CC2)CCN([C@@H](C)c2cc(Cl)cc(Cl)c2)CC1` (single isomer, unassigned) [Example 5]: 9.2 nM; for `C[C@H](c1cc(C(F)(F)F)cc(Cl)c1F)N1CCC(C#N)(COc2cc(F)c(C(=O)NS(C)(=O)=O)cc2C2CC2)CC1` (single isomer, unassigned) [Example 8]: 9.8 nM.
Take `CC(C)(C#N)[C@H](c1cc(Cl)cc(Cl)c1)N1CCC(COc2cc(F)c(C(=O)NS(C)(=O)=O)cc2C2CC2)CC1` (single isomer, unassigned) [Example 11]: the IC50 is 4.2 nM.
With `CC(C)(C#N)[C@@H](c1cc(Cl)cc(Cl)c1)N1CCC(COc2cc(F)c(C(=O)NS(C)(=O)=O)cc2C2CC2)CC1` (single isomer, unassigned) [Example 12], the IC50 amounted to 3.9 nM.
For `COc1c(Cl)cc(Cl)cc1[C@@H](C)N1CCC(COc2cc(F)c(C(=O)NS(C)(=O)=O)cc2C2CC2)CC1` (single isomer, unassigned) [Example 15], the IC50 stood at 5.1 nM.
`COc1c(Cl)cc(Cl)cc1[C@H](C)N1CCC(COc2cc(F)c(C(=O)NS(C)(=O)=O)cc2C2CC2)CC1` (single isomer, unassigned) [Example 16] registered an IC50 of 5.7 nM.
On to `C[C@@H](c1ccc(F)cc1Cl)N1CCC(F)(COc2cc(F)c(C(=O)NS(C)(=O)=O)cc2C2CC2)CC1` (single isomer, unassigned) [Example 18], for which the IC50 came out at 10 nM.
The molecule `C[C@H](c1ccc(F)cc1Cl)N1CCC(F)(COc2cc(F)c(C(=O)NS(C)(=O)=O)cc2C2CC2)CC1` (single isomer, unassigned) [Example 19] returned a 50% inhibitory concentration (IC50) of 6 nM.
As to `C[C@@H](c1ccc(Cl)c(Cl)c1)N1CCC(F)(COc2cc(F)c(C(=O)NS(C)(=O)=O)cc2C2CC2)CC1` (single isomer, unassigned) [Example 22], the IC50 turned out to be 5.6 nM.
The same measure for `C[C@H](c1ccc(Cl)c(Cl)c1)N1CCC(F)(COc2cc(F)c(C(=O)NS(C)(=O)=O)cc2C2CC2)CC1` (single isomer, unassigned) [Example 23]: 6.4 nM; for `C[C@@H](c1cc(F)cc(Cl)c1)N1CCC(F)(COc2cc(F)c(C(=O)NS(C)(=O)=O)cc2C2CC2)CC1` (single isomer, unassigned) [Example 24]: 4.1 nM.
Regarding `C[C@H](c1cc(F)cc(Cl)c1)N1CCC(F)(COc2cc(F)c(C(=O)NS(C)(=O)=O)cc2C2CC2)CC1` (single isomer, unassigned) [Example 25], the IC50 worked out at 2 nM.
Molecule `C[C@@H](c1ccc(F)c(Cl)c1)N1CCC(F)(COc2cc(F)c(C(=O)NS(C)(=O)=O)cc2C2CC2)CC1` (single isomer, unassigned) [Example 26] gave an IC50 of 4.7 nM.
Molecule `C[C@H](c1ccc(F)c(Cl)c1)N1CCC(F)(COc2cc(F)c(C(=O)NS(C)(=O)=O)cc2C2CC2)CC1` (single isomer, unassigned) [Example 27] had an IC50 of 8.6 nM.
The molecule `CCS(=O)(=O)NC(=O)c1cc(C2CC2)c(OCC2CCN([C@@H](C)c3cc(Cl)cc(Cl)c3F)CC2)cc1F` (single isomer, unassigned) [Example 32] displayed an IC50 of 5.1 nM.
